Where a name gives a salt, the structure may show the parent alone. A value given as a limit tells only on which side of the number the result lay.

By Ki is commonly meant a dissociation constant, usually derived from enzyme kinetics or from competition with a known ligand.

The target in the first test is T1, MMP-1 (Homo sapiens, UniProt P03956).
T1 construct: made in house; host or cells: MMP-1-transfected HT-1080 cells (spent media)
T1 sequence (P03956 100-469): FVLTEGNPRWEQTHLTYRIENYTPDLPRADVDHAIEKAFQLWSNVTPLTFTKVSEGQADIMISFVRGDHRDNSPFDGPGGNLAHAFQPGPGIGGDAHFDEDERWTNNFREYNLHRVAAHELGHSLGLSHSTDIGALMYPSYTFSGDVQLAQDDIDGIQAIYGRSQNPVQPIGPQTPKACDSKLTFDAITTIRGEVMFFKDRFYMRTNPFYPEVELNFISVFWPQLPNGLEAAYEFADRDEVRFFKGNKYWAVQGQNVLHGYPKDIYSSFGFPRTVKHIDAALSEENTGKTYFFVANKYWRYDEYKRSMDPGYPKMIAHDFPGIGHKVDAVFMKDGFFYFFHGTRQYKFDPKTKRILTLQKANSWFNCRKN
The test can be described thus: In vitro MMP inhibition, Ki determination (fluorogenic substrate II). It is filed as biochemical. Particulars: MMP-1 Ki, value not in parenthesis. On the procedure:
Several hydroxamic acids and salts thereof were analyzed in in vitro assays to determine their ability to inhibit the MMP cleavage of peptide substrates. […] and IC50 constants were calculated from the assayed hydroxamic acid-MMP interactions.
Human recombinant MMP-1, MMP-2, MMP-9, MMP-13, and MMP-14 were used in this assay. All enzymes were prepared in Assignee's laboratories following usual laboratory procedures. Protocols for the preparation and use of these enzymes are available in the scientific literature. See, e.g., Enzyme Nomenclature (Academic Press, San Diego, Calif., 1992) (and the citations therein). See also, Freije et al., “Molecular cloning and expression of collagenase-3, a novel human matrix metalloproteinase produced by breast carcinomas,” J Biol. Chem., 269(24), 16766-16773 (1994).
The MMP-1 proenzyme was purified from the spent media of MMP-1-transfected HT-1080 cells provided by Dr. Harold Welgus of Washington University (St. Louis, Mo.). The protein was purified on a zinc chelating column.
All MMPs were activated using 4-aminophenylmercuric acetate (“APMA”, Sigma Chemical, St. Louis, Mo.) or trypsin. MMP-9 also was activated using human recombinant MMP-3 (purified in Assignee's laboratory following standard cloning and purification techniques).
Two fluorogenic, methoxycoumarin-containing polypeptide substrates were used in the MMP inhibition assays: [drawing 427] Here, “Dpa” is 3-(2,4-dinitrophenyl)-L-2,3-diaminopropionyl group, and “MCA” is 7-methoxycoumarin-4-yl acetyl. Substrate (I) was purchased from Baychem (Redwood City, Calif.), and substrate II was prepared Assignee's laboratory. Substrate I was used in the IC50 determination assays, while substrate II was used in the Ki determination assays. In the absence of MMP inhibitory activity, either substrate is cleaved at the Gly-Leu peptide bond. This cleavage separates the highly fluorogenic peptide from the 2,4-dinitrophenyl quencher, thus resulting in increase of fluorescent intensity.
The stock solutions of the assayed hydroxamic acids (or salts thereof) were prepared in 1% dimethyl sulfoxide (DMSO). These stock solutions were diluted in Buffer A (100 mM Tris-HCl, 100 mM NaCl, 10 mM CaCl2, 0.05% polyoxyethylene 23 lauryl ether, pH 7.5) to obtain solutions with different hydroxamic acid concentrations, i.e., assay solutions with different concentrations of the assayed MMP inhibitory compound. The experiment controls contained the same amount of Buffer A/DMSO as the assayed sample, but contained no hydroxamic acid (or salt thereof).
The assays from which the Ki determinations were made were performed as follows. The assayed hydroxamic acid samples were incubated in separate wells of untreated white polystyrene plates (Nunc Nalgene International, Rochester, N.Y.), and analyzed on a Tecan SpectraFlour Plus plate reader. The excitation wavelength was 330 nm, and the emission wavelength—420 nm. All samples (assayed hydroxamic acids and controls) were incubated in separate plate wells at room temperature for 1 hr in the presence of 4 μM of MMP substrate (II). In the absence of MMP inhibitory activity, substrate II was cleaved at the Gly-Leu bond resulting in an increase of relative fluorescence. Inhibition was observed as a reduced rate of this increase in relative fluorescence. The various hydroxamic acids were analyzed using a single low enzyme concentration with a single substrate concentration fixed at or below the Km. This protocol is a modification of method by Knight et al., FEBS Lett., 296(3), 263-266 (1992). Apparent inhibitory constants were determined by non-linear regression of reaction velocity as a function of inhibitor and enzyme concentration using Morrison's equation, as described by Kuzmic, Anal. Biochem. 286, 45-50 (2000). […] Since the substrate concentration was chosen to be at or below the Km, the apparent Ki's from this analysis were reported as Ki's without correction for the influence of substrate.
Regarding `O=C(NO)C1(S(=O)(=O)N2CCN(c3ccc(COCC(F)(F)C(F)(F)C(F)(F)C(F)F)cc3)CC2)CCOCC1` [Example 68], the inhibition constant (Ki) was over 10 µM.

Still in this test, the particulars now being: human recombinant enzyme; 4 μM substrate II; room temperature, 1 hr; read-out: MMP-1 Ki.
Turning to `O=C(NO)C1(S(=O)(=O)N2CCN(c3ccc(CCC(F)(F)C(F)(F)F)cc3)CC2)CCOCC1` [Example 17, N-hydroxy-4-({4-[4-(3,3,4,4,4-pentafluorobutyl)phenyl]piperazin-1-yl}sulfonyl)tetrahydro-2H-pyran-4-carboxamide Hydrochloride], the Ki was over 10 µM.
Same read-out and setting: for `CCCCCc1ccc(N2CCN(S(=O)(=O)C3(C(=O)NO)CCN(C(=O)C(F)(F)F)CC3)CC2)cc1` [Example 21, N-hydroxy-4-{[4-(4-pentylphenyl)piperazin-1-yl]sulfonyl}-1-(trifluoroacetyl)piperidine-4-carboxamide Hydrochloride] the value was over 10 µM.
For `COCCN1CCC(C(=O)NO)(S(=O)(=O)N2CCN(c3ccc(OCCCC(F)(F)F)cc3)CC2)CC1` [Example 9, N-hydroxy-1-(2-methoxyethyl)-4-({4-[4-(4,4,4-trifluorobutoxy)phenyl]piperazin-1-yl}sulfonyl)piperidine-4-carboxamide Dihydrochloride], the Ki is over 10 µM.
Still for that read-out and setting: for `COc1ccc(-c2cnc(N3CCN(S(=O)(=O)C4(C(=O)NO)CCOCC4)CC3)nc2)cc1` [Example 8, N-hydroxy-4-({4-[5-(4-methoxyphenyl)pyrimidin-2-yl]piperazin-1-yl}sulfonyl)tetrahydro-2H-pyran-4-carboxamide Hydrochloride] the value was 0.748 µM; for `COCCN1CCC(C(=O)NO)(S(=O)(=O)N2CCC(c3ccc(OCCCC(F)(F)F)cc3)CC2)CC1` [Example 20, N-hydroxy-1-(2-methoxyethyl)-4-({4-[4-(4,4,4-trifluorobutoxy)phenyl]piperidin-1-yl}sulfonyl)piperidine-4-carboxamide Hydrochloride], over 10 µM.
Same read-out and setting: the result for `O=C(NO)C1(S(=O)(=O)N2CCN(c3ccc(OC(F)(F)C(F)F)cc3)CC2)CCOCC1` [Example 4, 4-({4-[4-(1,1,2,2-tetrafluoroethoxy)phenyl]piperazinyl}sulfonyl)perhydro-2H-pyran-4-carbohydroxamic Acid] reads 1.47 µM.
On the same count and under the same terms, for `CCCCOc1ccc(C2CCN(S(=O)(=O)C3(C(=O)NO)CCN(CCOC)CC3)CC2)cc1` [Example 16, 4-{[4-(4-butoxyphenyl)piperidin-1-yl]sulfonyl}-N-hydroxy-1-(2-methoxyethyl)piperidine-4-carboxamide Hydrochloride] the value was over 10 µM; for `CCCCCCCCC1CCN(S(=O)(=O)C2(C(=O)NO)CCOCC2)CC1` [Example 26, 4-(4-octyl-piperidine-1-sulfonyl)-tetrahydro-pyran-4-carboxylic Acid Hydroxyamide], 2.97 µM; for `O=C(NO)C1(S(=O)(=O)N2CCN(c3ccc(-c4ccccc4)c(F)c3)CC2)CCOCC1` [Example 12, 4-{[4-(2-fluoro-1,1′-biphenyl-4-yl)piperazin-1-yl]sulfonyl}-N-hydroxytetrahydro-2H-pyran-4-carboxamide Hydrochloride], over 10 µM.
Consider `CCCCc1ccc(C2CCN(S(=O)(=O)C3(C(=O)NO)CCOCC3)CC2)s1` [Example 19, 4-{[4-(5-butylthien-2-yl)piperidin-1-yl]sulfonyl}-N-hydroxytetrahydro-2H-pyran-4-carboxamide], for which the Ki is over 10 µM.
In the case of `O=C(NO)C1(S(=O)(=O)N2CCN(c3ccc(OCCCC(F)(F)F)cc3)CC2)CCOCC1` [Example 7, N-hydroxy-4-({4-[4-(4,4,4-trifluorobutoxy)phenyl]piperazin-1-yl}sulfonyl)tetrahydro-2H-pyran-4-carboxamide Hydrochloride], the Ki was over 10 µM.

Still in this test, the particulars now being: value not in parenthesis; read-out: MMP-1 Ki.
As to `COCCN1CCC(C(=O)NO)(S(=O)(=O)N2CCN(c3ccc(OCC(F)(F)C(F)(F)F)cc3)CC2)CC1` [Example 144], the Ki is over 10 µM.
On the same count and under the same terms, for `O=C(NO)C1(S(=O)(=O)N2CCN(c3ccc(-c4ccc(Cl)cc4)cn3)CC2)CCOCC1` [Example 60] the value was 0.555 µM.
On the same count and under the same terms, for `CCCCc1ccc(N2CCN(S(=O)(=O)C3(C(=O)NO)CCN(c4ccc(C)cc4)CC3)CC2)cc1` [Example 146] the value was over 10 µM.
Still for that read-out and setting: the result for `CCCCOc1ccc(N2CCN(S(=O)(=O)C3(C(=O)NO)CCN(c4ccc(C)nc4)CC3)CC2)cc1` [Example 131] reads over 10 µM; that for `COCCN1CCC(C(=O)NO)(S(=O)(=O)N2CCN(c3ccc(OCC(F)(F)F)cc3)CC2)CC1` [Example 119], over 10 µM; that for `CCCCOc1ccc(N2CCN(S(=O)(=O)C3(C(=O)NO)CCN(c4ccc(OCCOC)nn4)CC3)CC2)cc1` [Example 129], over 10 µM.
On to `O=C(NO)C1(S(=O)(=O)N2CCN(c3ccc(OCCCC(F)(F)F)cc3F)CC2)CCOCC1` [Example 117], for which the Ki was over 10 µM.
The same measure, in the same setting: for `COc1ccc(N2CCN(S(=O)(=O)C3(C(=O)NO)CCOCC3)CC2)nc1` [Example 109] the value was over 10 µM.
Still for that read-out and setting: for `COc1ccc(N2CCN(S(=O)(=O)C3(C(=O)NO)CCOCC3)CC2)nc1` [Example 108] the value was over 10 µM; for `CCCCOc1ccc(N2CCN(S(=O)(=O)C3(C(=O)NO)CCN(c4ccccn4)CC3)CC2)cc1` [Example 149], over 10 µM; for `CCCCOc1ccc(N2CCN(S(=O)(=O)C3(C(=O)NO)CCN(c4nccc(C(F)(F)F)n4)CC3)CC2)cc1` [Example 130], over 10 µM.
On the same count and under the same terms, for `CCCCOc1ccc(N2CCN(S(=O)(=O)C3(C(=O)NO)CCN(c4cc(C)ccn4)CC3)CC2)cc1` [Example 139] the value was 7.24 µM; for `CCCCOc1ccc(N2CCN(S(=O)(=O)C3(C(=O)NO)CCN(c4cccnc4)CC3)CC2)cc1` [Example 154], over 10 µM; for `CCCCOc1ccc(N2CCN(S(=O)(=O)C3(C(=O)NO)CCN(C(=O)N4CCOCC4)CC3)CC2)cc1` [Example 124], over 10 µM.
As for `CCCCOc1ccc(N2CCN(S(=O)(=O)C3(C(=O)NO)CCN(c4cnccn4)CC3)CC2)cc1` [Example 140], the Ki is over 10 µM.
The same measure, in the same setting: the result for `CCCCOc1ccc(N2CCN(S(=O)(=O)C3(C(=O)NO)CCN4CCCC4C3)CC2)cc1F` (stereo not shown) [Example 126] reads over 10 µM.
Same read-out and setting: the result for `CCCCOc1ccc(N2CCN(S(=O)(=O)C3(C(=O)NO)CCN(C(=O)c4cc5ccccc5s4)CC3)CC2)cc1` [Example 143] reads over 10 µM.
As to `CCCCCCCCCc1cnc(N2CCN(S(=O)(=O)C3(C(=O)NO)CCOCC3)CC2)nc1` [Example 111], the Ki is over 10 µM.
The same measure, in the same setting: for `C=CCCOC(=O)N1CCC(C(=O)NO)(S(=O)(=O)N2CCN(c3ccc(OCCCC)cc3)CC2)CC1` [Example 101] the value was over 10 µM.
On to `CCc1ccc(N2CCN(S(=O)(=O)C3(C(=O)NO)CCOCC3)CC2)nc1` [Example 114], for which the inhibitory constant (Ki) was 1.61 µM.
The same measure, in the same setting: the result for `CCCCOc1ccc(N2CCN(S(=O)(=O)C3(C(=O)NO)CCN(C(=S)N(C)C)CC3)CC2)cc1` [Example 123] reads over 10 µM; that for `COCCN1CCC(C(=O)NO)(S(=O)(=O)N2CCN(c3ccc(OCCC(C)C)cc3)CC2)CC1` [Example 148], over 10 µM.

Values taken from patent US20050209278A1, “Piperidinyl- and piperazinyl-sulfonylmethyl hydroxamic acids and their use as protease inhibitors” (priority 2002, published 2005).
